Literature values, collected in patent publication US20080114067A1, “Composition for Recovery From or Prevention of Central Nervous System Fatigue” (priority 2005, published 2008).

System: human placental cell
Conditions: placental brush border tissue

Row | Compound | suppression of uptake of tryptophan
1 | N[C@@H](CS)C(=O)O [L-cysteine] | could be suppressed
2 | CC(C)C[C@H](N)C(=O)O [L-leucine] | could be suppressed
3 | CSCC[C@H](N)C(=O)O [L-methionine] | could be suppressed
4 | N[C@@H](Cc1ccccc1)C(=O)O [L-phenylalanine] | could be suppressed
5 | CC(C)[C@H](N)C(=O)O [L-valine] | could be suppressed
